The target in test [1] is T1, AChE (EC 3.1.1.7) from electric eel (Electrophorus electricus, UniProt O42275).
T1 construct: purchased Sigma-Aldrich
The experiment in a line: biochemical. The class given is biochemical. Particulars: for inhibition at 100 µM: read-out: AChE IR (inhibitory rate); for SI (selectivity index = AChE IC50/BChE IC50): eeAChE IC50 / eqBChE IC50. The method, then:
(§1) The data were expressed as IC50 values (Table 1).
(§2) The inhibitory activities of the target compounds towards AChE (from Electrophorus electricus (electric eeAChE, Sigma-Aldrich) and horse serum BChE (eqBChE, Sigma-Aldrich) or human AChE – huAChE; human BuChE – huBuChE (huAChE, huBuChE, Sigma-Aldrich) were measured by Ellman’s method. In 96-well plates, a mixture of phosphate buffer (0.1 M, pH 8.0, […]), 5,5′-dithiobis-2-nitrobenzoic acid (DTNB, 60 µL), acetylcholinestrase or butyrylcholinesterase (20 µL, 5 IU/mL) and different concentration of the compound solution (30 µL) was pre-incubated for 5 min followed by the addition of the substrate (acetylthiocholine iodide or butyrylthiocholine iodide, 20 µL). […] The measurement of each concentration for each compound was detected in triplicate. GraphPad Prism 6.0 (GraphPad Software, Inc., La Jolla, CA) was used for data processing. The inhibition curve was fitted by plotting percentage enzyme activity (100% for the reference) versus the logarithm of the concentration of tested compound. The half-maximal inhibitory concentration (IC50) values were calculated according to the inhibition curve and the data were shown in the layout of mean ± SEM by GraphPad Prism 6.0.

The target of test [2] is T2, BChE (EC 3.1.1.8) from horse serum (Equus caballus, UniProt P81908).
T2 construct: horse serum BChE (eqBChE, Sigma-Aldrich); purchased Sigma-Aldrich; host or cells: horse serum
The experiment in a line: biochemical. To be noted: for inhibition at 100 µM: compound at 100 μM, read-out: BChE IR (inhibitory rate). The method, then: as §1, §2

[3] abbreviates: eeAChE, mean ± SEM of triplicate independent experiments, read-out: AChE IC50.
Setting [4] is: eqBChE, mean ± SEM of triplicate independent experiments, read-out: BChE IC50.

Like-named read-outs stand apart in the source and are kept apart here.

T2 sequence (P81908 whole entry): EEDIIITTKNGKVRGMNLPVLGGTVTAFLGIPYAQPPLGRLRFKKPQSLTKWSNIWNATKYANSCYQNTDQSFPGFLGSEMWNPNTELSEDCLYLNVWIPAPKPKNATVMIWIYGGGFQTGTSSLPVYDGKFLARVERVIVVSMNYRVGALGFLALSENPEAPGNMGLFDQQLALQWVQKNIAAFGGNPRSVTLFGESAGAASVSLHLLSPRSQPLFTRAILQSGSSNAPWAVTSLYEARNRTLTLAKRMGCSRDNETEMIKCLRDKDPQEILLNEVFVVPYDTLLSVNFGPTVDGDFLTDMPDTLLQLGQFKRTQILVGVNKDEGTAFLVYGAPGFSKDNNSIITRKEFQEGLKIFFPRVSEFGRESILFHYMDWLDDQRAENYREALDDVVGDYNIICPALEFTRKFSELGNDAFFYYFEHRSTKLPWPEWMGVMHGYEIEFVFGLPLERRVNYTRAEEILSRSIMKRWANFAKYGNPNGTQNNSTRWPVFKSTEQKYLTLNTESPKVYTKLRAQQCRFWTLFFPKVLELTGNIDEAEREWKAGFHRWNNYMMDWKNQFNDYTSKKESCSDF
T1 sequence (O42275 24-633): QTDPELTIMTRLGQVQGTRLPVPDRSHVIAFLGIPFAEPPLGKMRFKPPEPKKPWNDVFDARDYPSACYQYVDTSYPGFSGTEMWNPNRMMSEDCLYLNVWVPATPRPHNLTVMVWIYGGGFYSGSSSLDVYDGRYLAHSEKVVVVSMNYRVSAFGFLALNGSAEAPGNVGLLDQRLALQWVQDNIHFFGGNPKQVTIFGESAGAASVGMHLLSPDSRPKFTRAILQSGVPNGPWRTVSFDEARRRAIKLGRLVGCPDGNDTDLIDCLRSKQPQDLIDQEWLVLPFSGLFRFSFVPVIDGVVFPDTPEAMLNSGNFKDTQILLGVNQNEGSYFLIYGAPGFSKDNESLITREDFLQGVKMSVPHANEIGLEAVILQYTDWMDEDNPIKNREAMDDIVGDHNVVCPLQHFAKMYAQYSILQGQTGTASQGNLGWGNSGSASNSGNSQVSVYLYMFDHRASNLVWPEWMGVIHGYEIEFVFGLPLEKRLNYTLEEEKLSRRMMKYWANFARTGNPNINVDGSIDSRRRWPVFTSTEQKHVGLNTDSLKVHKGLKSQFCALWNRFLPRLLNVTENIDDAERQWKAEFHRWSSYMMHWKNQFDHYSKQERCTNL

With `Cn1c(=O)n(C)c2cc(C(=O)NCC3CCN(Cc4ccccc4)CC3)ccc21` [Compound 9a, N-((1-benzylpiperidin-4-yl)methyl)-1,3-dimethyl-2-oxo-2,3-dihydro-1H-benzo[d]imidazole-5-carboxamide], in test [1] (setting [3]), the IC50 (commonly the concentration that inhibits the measured activity by half) came out at 3.14 ± 1.12 µM. Also, in test [2] (eqBChE), the inhibition at 100 µM is 43.9%.

Regarding `Cc1ccccc1CN1CCC(CNC(=O)c2ccc3c(c2)n(C)c(=O)n3C)CC1` [Compound 9b, 1,3-dimethyl-N-((1–(2-methylbenzyl)piperidin-4-yl)methyl)-2-oxo-2,3-dihydro-1H-benzo[d]imidazole-5-carboxamide], the IC50 in test [1] (setting [3]) stood at 8.08 ± 2.66 µM. Moreover, in test [2] (eqBChE), the inhibition at 100 µM was determined as 41.4%.

On to `Cc1cccc(CN2CCC(CNC(=O)c3ccc4c(c3)n(C)c(=O)n4C)CC2)c1` [Compound 9c, 1,3-dimethyl-N-((1–(3-methylbenzyl)piperidin-4-yl)methyl)-2-oxo-2,3-dihydro-1H-benzo[d]imidazole-5-carboxamide], for which the IC50 in test [1] (setting [3]) was 3.83 ± 2.04 µM. Further, in test [2] (eqBChE), the inhibition at 100 µM came to 44%.

Regarding `Cc1ccc(CN2CCC(CNC(=O)c3ccc4c(c3)n(C)c(=O)n4C)CC2)cc1` [Compound 9d, 1,3-dimethyl-N-((1–(4-methylbenzyl)piperidin-4-yl)methyl)-2-oxo-2,3-dihydro-1H-benzo[d]imidazole-5-carboxamide], the IC50 in test [1] (setting [3]) amounted to 25.7 ± 12.3 µM. Besides, the inhibition at 100 µM in test [2] (eqBChE) worked out at 37.8%.

For the compound `Cc1ccc(CN2CCC(CNC(=O)c3ccc4c(c3)n(C)c(=O)n4C)CC2)cc1C` [Compound 9e, N-((1–(3,4-dimethylbenzyl)piperidin-4-yl)methyl)-1,3-dimethyl-2-oxo-2,3-dihydro-1H-benzo[d]imidazole-5-carboxamide], the IC50 in test [1] (setting [3]) came out at 9.97 ± 2.52 µM. Moreover, in test [2] (eqBChE), the inhibition at 100 µM worked out at 30.8%.

With `COc1cccc(CN2CCC(CNC(=O)c3ccc4c(c3)n(C)c(=O)n4C)CC2)c1` [Compound 9f, N-((1–(3-methoxybenzyl)piperidin-4-yl)methyl)-1,3-dimethyl-2-oxo-2,3-dihydro-1H-benzo[d]imidazole-5-carboxamide], the results for the inhibition at 100 µM in test [1] and in test [2] (eqBChE) were 33.5% and 25%, respectively.

As for `COc1ccc(CN2CCC(CNC(=O)c3ccc4c(c3)n(C)c(=O)n4C)CC2)cc1` [Compound 9g, N-((1–(4-methoxybenzyl)piperidin-4-yl)methyl)-1,3-dimethyl-2-oxo-2,3-dihydro-1H-benzo[d]imidazole-5-carboxamide], the IC50 in test [1] (setting [3]) was 5.17 ± 2.25 µM. In test [2] (eqBChE), the inhibition at 100 µM turned out to be 41.5%.

Consider `Cn1c(=O)n(C)c2cc(C(=O)NCC3CCN(Cc4ccccc4F)CC3)ccc21` [Compound 9h, N-((1–(2-fluorobenzyl)piperidin-4-yl)methyl)-1,3-dimethyl-2-oxo-2,3-dihydro-1H-benzo[d]imidazole-5-carboxamide], for which, in test [1] (setting [3]), the IC50 came out at 16.2 ± 4.34 µM. In addition, the inhibition at 100 µM in test [2] (eqBChE) amounted to 30%.

Turning to `Cn1c(=O)n(C)c2cc(C(=O)NCC3CCN(Cc4cccc(F)c4)CC3)ccc21` [Compound 9i, N-((1–(3-fluorobenzyl)piperidin-4-yl)methyl)-1,3-dimethyl-2-oxo-2,3-dihydro-1H-benzo[d]imidazole-5-carboxamide], the IC50 was 2.93 ± 1.96 µM in test [1] (setting [3]) and 95.1 ± 59.3 µM in test [2] (setting [4]).

Consider `Cn1c(=O)n(C)c2cc(C(=O)NCC3CCN(Cc4ccc(F)cc4)CC3)ccc21` [Compound 9j, N-((1–(4-fluorobenzyl)piperidin-4-yl)methyl)-1,3-dimethyl-2-oxo-2,3-dihydro-1H-benzo[d]imidazole-5-carboxamide], for which the “SI (selectivity index = AChE IC50/BChE IC50)” value in test [1] was found to be 1.27. Also, the IC50 in test [1] (setting [3]) was determined as 4.7 ± 2.01 µM; in test [2] (setting [4]) it was 3.71 ± 1.88 µM.

On to `Cn1c(=O)n(C)c2cc(C(=O)NCC3CCN(Cc4ccccc4Cl)CC3)ccc21` [Compound 9k, N-((1–(2-chlorobenzyl)piperidin-4-yl)methyl)-1,3-dimethyl-2-oxo-2,3-dihydro-1H-benzo[d]imidazole-5-carboxamide], for which the IC50 in test [1] (setting [3]) amounted to 3.92 ± 1.2 µM. Also, the inhibition at 100 µM in test [2] (eqBChE) amounted to 46.5%.

As for `Cn1c(=O)n(C)c2cc(C(=O)NCC3CCN(Cc4cccc(Cl)c4)CC3)ccc21` [Compound 9l, N-((1–(3-chlorobenzyl)piperidin-4-yl)methyl)-1,3-dimethyl-2-oxo-2,3-dihydro-1H-benzo[d]imidazole-5-carboxamide], the IC50 in test [1] (setting [3]) was determined as 6 ± 3.31 µM. The inhibition at 100 µM in test [2] (eqBChE) was 36.9%.

In the case of `Cn1c(=O)n(C)c2cc(C(=O)NCC3CCN(Cc4ccc(Cl)cc4)CC3)ccc21` [Compound 9m, N-((1–(4-chlorobenzyl)piperidin-4-yl)methyl)-1,3-dimethyl-2-oxo-2,3-dihydro-1H-benzo[d]imidazole-5-carboxamide], the “fold increase of inhibitory activity towards AChE compared to 9a” value in test [1] (eeAChE) is on record as 15 fold. Moreover, the IC50 in test [1] (setting [3]) was found to be 0.21 ± 0.03 µM. For the same compound, the inhibition at 100 µM in test [2] (eqBChE) came to 49.9%.

For `Cn1c(=O)n(C)c2cc(C(=O)NCC3CCN(Cc4ccccc4Br)CC3)ccc21` [Compound 9n, N-((1–(2-bromobenzyl)piperidin-4-yl)methyl)-1,3-dimethyl-2-oxo-2,3-dihydro-1H-benzo[d]imidazole-5-carboxamide], in test [1] (setting [3]), the IC50 came to 8.87 ± 4.56 µM. In addition, the inhibition at 100 µM in test [2] (eqBChE) amounted to 43.5%.

On to `Cn1c(=O)n(C)c2cc(C(=O)NCC3CCN(Cc4cccc(Br)c4)CC3)ccc21` [Compound 9o, N-((1–(3-bromobenzyl)piperidin-4-yl)methyl)-1,3-dimethyl-2-oxo-2,3-dihydro-1H-benzo[d]imidazole-5-carboxamide], for which, in test [1] (setting [3]), the IC50 is 3.69 ± 1.83 µM. The inhibition at 100 µM in test [2] (eqBChE) was 42.8%.

Consider `Cn1c(=O)n(C)c2cc(C(=O)NCC3CCN(Cc4ccc(Br)cc4)CC3)ccc21` [Compound 9p, N-((1–(4-bromobenzyl)piperidin-4-yl)methyl)-1,3-dimethyl-2-oxo-2,3-dihydro-1H-benzo[d]imidazole-5-carboxamide], for which, in test [1] (setting [3]), the IC50 turned out to be 11.1 ± 6.42 µM. Also, in test [2] (eqBChE), the inhibition at 100 µM came to 38.5%.

On to `COc1ccc(CN2CCC(CNC(=O)c3ccc4[nH]ccc4c3)CC2)cc1` [Compound 11a, N-((1–(4-methoxybenzyl)piperidin-4-yl)methyl)-1H-indole-5-carboxamide], for which, in test [1], the IC50 was 38.1 ± 12.8 µM and the “SI (selectivity index = AChE IC50/BChE IC50)” value turned out to be 3.54. The compound further had an IC50 in test [2] of 10.8 ± 5.55 µM.

As to `COc1ccc(CN2CCC(CNC(=O)c3ccc4[nH]ncc4c3)CC2)cc1` [Compound 11b, N-((1–(4-methoxybenzyl)piperidin-4-yl)methyl)-1H-indazole-5-carboxamide], the inhibition at 100 µM in test [1] turned out to be 48.6%; in test [2] (eqBChE), 44.6%.

On to `O=C(NCC1CCN(Cc2ccccc2Cl)CC1)c1ccc2[nH]ncc2c1` [Compound 11c, N-((1–(2-chlorobenzyl)piperidin-4-yl)methyl)-1H-indazole-5-carboxamide], for which the IC50 in test [1] amounted to 5.44 ± 2.22 µM; in test [2] it was 21.3 ± 5 µM. Also, the “SI (selectivity index = AChE IC50/BChE IC50)” value in test [1] is 0.26.

As to `COc1ccc(CN2CCC(CNC(=O)c3ccc4[nH]cnc4c3)CC2)cc1` [Compound 11d, N-((1–(4-methoxybenzyl)piperidin-4-yl)methyl)-1H-benzo[d]imidazole-5-carboxamide], the results for the inhibition at 100 µM in test [1] and in test [2] (eqBChE) were 18.8% and 16.5%, respectively.

In turn, `O=C(NCC1CCN(Cc2ccccc2Cl)CC1)c1ccc2[nH]cnc2c1` [Compound 11e, N-((1–(2-chlorobenzyl)piperidin-4-yl)methyl)-1H-benzo[d]imidazole-5-carboxamide] came in with an IC50 in test [1] of 7.48 ± 3.1 µM. The inhibition at 100 µM in test [2] (eqBChE) worked out at 42.1%.

`O=C(NCC1CCN(Cc2ccccc2)CC1)c1ccc2[nH]nnc2c1` [Compound 11f, N-((1-benzylpiperidin-4-yl)methyl)-1H-benzo[d][1,2,3]triazole-5-carboxamide] came in with an IC50 in test [1] of 0.46 ± 0.4 µM. Further, the inhibition at 100 µM in test [2] (eqBChE) worked out at 43.1%.

Turning to `Cn1c(=O)n(C)c2cc(S(=O)(=O)NCC3CCN(Cc4ccccc4)CC3)ccc21` [Compound 15a, N-((1-benzylpiperidin-4-yl)methyl)-1,3-dimethyl-2-oxo-2,3-dihydro-1H-benzo[d]imidazole-5-sulphonamide], in test [1], the “SI (selectivity index = AChE IC50/BChE IC50)” value came to 0.84. Moreover, the IC50 in test [1] (setting [3]) was determined as 0.38 ± 0.08 µM; in test [2] (setting [4]), 0.45 ± 0.02 µM.

`Cc1cccc(CN2CCC(CNS(=O)(=O)c3ccc4c(c3)n(C)c(=O)n4C)CC2)c1` [Compound 15c, 1,3-dimethyl-N-((1–(3-methylbenzyl)piperidin-4-yl)methyl)-2-oxo-2,3-dihydro-1H-benzo[d]imidazole-5-sulphonamide]: the “SI (selectivity index = AChE IC50/BChE IC50)” value in test [1] came out at 1.14. The IC50 in test [1] (setting [3]) came to 0.54 ± 0.14 µM; in test [2] (setting [4]), 0.47 ± 0.17 µM.

As to `Cc1ccc(CN2CCC(CNS(=O)(=O)c3ccc4c(c3)n(C)c(=O)n4C)CC2)cc1` [Compound 15d, 1,3-dimethyl-N-((1–(4-methylbenzyl)piperidin-4-yl)methyl)-2-oxo-2,3-dihydro-1H-benzo[d]imidazole-5-sulphonamide], the “SI (selectivity index = AChE IC50/BChE IC50)” value in test [1] came out at 0.24. Besides, the IC50 in test [1] (setting [3]) was 24.8 ± 3.48 µM; in test [2] (setting [4]), 100 ± 22.1 µM.

These data come from PMC6968383, “Design, synthesis, in vitro and in vivo evaluation of benzylpiperidine-linked 1,3-dimethylbenzimidazolinones as cholinesterase inhibitors against Alzheimer’s disease” (Journal of Enzyme Inhibition and Medicinal Chemistry, 2019).
